Results reported in ChEMBL document CHEMBL4673222, “Discovery of a Bioactive Inhibitor with a New Scaffold for Cystathionine γ-Lyase” (J Med Chem, 2019).
Active and inactive are the calls of the source. The calls are words filed in the database; no cut-off is given here.

Columns and labels:
[1] = molecular target: T1, Cystathionine gamma-lyase (Homo sapiens, UniProt P32929); test: Competitive inhibition of human CSE using varying levels of L-Cys as substrate and fixed PLP levels
[2] = molecular target: T1, Cystathionine gamma-lyase; test: Binding affinity to human CSE by ITC analysis
[3] = molecular target: T1, Cystathionine gamma-lyase; test: Non-covalent reversible inhibition of human CSE
[4] = molecular target: T1, Cystathionine gamma-lyase; test: Inhibition of human CSE using H-Cys as the substrate by tandem well based HTS assay
[5] = molecular target: T1, Cystathionine gamma-lyase; test: Inhibition of human CSE using H-Cys as the substrate by LC/MS/MS-based assay
[6] = molecular target: T1, Cystathionine gamma-lyase; test: Inhibition of human CSE using L-Cys as the substrate in presence of 0.01% Triton X-100 by tandem well based HTS assay
[7] = molecular target: T1, Cystathionine gamma-lyase; test: Inhibition of human CSE using L-Cys as the substrate in presence of 0.025% Triton X-100 by tandem well based HTS assay
[8] = Binding affinity to H2S assessed as absorbing of released H2S up to 100 uM in presence of NaHS as H2S donor; settings: dose microM <=100
[9] = Binding affinity to H2S assessed as absorbing of released H2S at 200 uM in presence of NaHS as H2S donor
Homo sapiens [10] = species: Homo sapiens; test: Selectivity index, ratio of IC50 for human CBS to IC50 for human CSE
Homo sapiens [11] = species: Homo sapiens; test: Selectivity index, ratio of IC50 for human CBS to IC50 for human DDC
[12] = molecular target: T1, Cystathionine gamma-lyase; test: Inhibition of human CSE using L-Cys as the substrate by tandem well based HTS assay
[13] = molecular target: T1, Cystathionine gamma-lyase; test: Inhibition of human CSE expressed in mouse RAW264.7 cells assessed as reduction in amount of released H2S level at >=200 uM by lead acetate method; type: cell-based; settings: dose microM >=200
[14] = molecular target: Cystathionine gamma-lyase (Mus musculus) (UniProt Q8VCN5); test: Inhibition of CSE in mouse RAW264.7 cells assessed as reduction in amount of released H2S level at >= 200 uM by lead acetate method; type: cell-based; settings: dose microM >=200
[15] = molecular target: Cystathionine gamma-lyase (Mus musculus, UniProt Q8VCN5); test: Inhibition of CSE in mouse RAW264.7 cells assessed as reduction in endogenous H2S level by AzMC probe based fluorescence assay; type: cell-based
Sequence of Cystathionine gamma-lyase (Mus musculus, UniProt Q8VCN5) (Q8VCN5 whole entry): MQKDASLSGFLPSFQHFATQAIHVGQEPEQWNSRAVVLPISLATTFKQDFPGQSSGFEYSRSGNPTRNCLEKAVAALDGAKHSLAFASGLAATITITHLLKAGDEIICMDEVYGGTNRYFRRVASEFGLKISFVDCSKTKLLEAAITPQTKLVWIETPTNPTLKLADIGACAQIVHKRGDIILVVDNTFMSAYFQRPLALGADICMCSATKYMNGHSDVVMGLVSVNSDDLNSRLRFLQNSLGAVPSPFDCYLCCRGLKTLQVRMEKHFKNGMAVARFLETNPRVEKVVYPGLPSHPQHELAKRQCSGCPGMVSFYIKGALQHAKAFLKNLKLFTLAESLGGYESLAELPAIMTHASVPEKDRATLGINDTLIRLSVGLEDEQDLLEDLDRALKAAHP

T1 sequence (P32929 whole entry): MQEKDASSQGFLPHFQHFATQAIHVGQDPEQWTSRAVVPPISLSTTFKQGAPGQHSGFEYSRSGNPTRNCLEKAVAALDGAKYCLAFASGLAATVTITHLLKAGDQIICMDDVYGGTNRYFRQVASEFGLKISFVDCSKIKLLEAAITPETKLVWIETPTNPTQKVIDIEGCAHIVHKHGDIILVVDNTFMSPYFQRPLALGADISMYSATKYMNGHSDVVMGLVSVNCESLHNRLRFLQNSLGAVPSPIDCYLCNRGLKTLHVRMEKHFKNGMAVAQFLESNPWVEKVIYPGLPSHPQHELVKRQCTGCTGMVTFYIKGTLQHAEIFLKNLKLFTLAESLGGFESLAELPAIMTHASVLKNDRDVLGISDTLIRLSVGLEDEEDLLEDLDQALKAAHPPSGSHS
Sequence of Cystathionine gamma-lyase (Mus musculus) (Q8VCN5 whole entry): as the sequence (Q8VCN5 whole entry) above

Compound: COc1cccc2c1C(=O)C1=C(C[C@H](CC(=O)O)O[C@H]1C)C2=O
- Ki [1]: 4.9 µM
- Kd [2]: 3.8 µM
- IC50 [3]: 6.2 µM
- IC50 [4]: 7.4 µM
- IC50 [5]: 13.5 µM
- inhibition [6]: Active
- inhibition [7]: Active
- Activity [8]: inactive
- Activity [9]: 20%
- Ratio IC50 (Homo sapiens [10]): 161
- Ratio IC50 (Homo sapiens [11]): 32
- IC50 [12]: 6.2 µM

Compound: O=C1C(Cl)=C(NCCCCCCNC2=C(Cl)C(=O)c3ccccc3C2=O)C(=O)c2ccccc21
- IC50 [12]: < 50 µM

Compound: NC1=C(Cl)C(=O)c2ncccc2C1=O
- IC50 [12]: < 50 µM

Compound: O=C(O)c1cc(/N=N/c2ccc(O)c(C(=O)O)c2)ccc1O [OLSALAZINE]
- IC50 [12]: > 200 µM

Compound: Cc1nc2c(N)nc(N)nc2nc1O
- IC50 [12]: < 50 µM

Compound: O=CN/C=C\c1cc(O)ccc1O
- IC50 [12]: < 50 µM

Compound: O=C1C=C/C(=N/C2C(=O)c3ccccc3C(=O)C2Cl)C=C1Cl (configuration not stated)
- IC50 [12]: < 50 µM

Compound: NC1=C(Br)C(=O)c2ncccc2C1=O
- IC50 [12]: < 50 µM

Compound: NC1=CC(=O)c2cccnc2C1=O
- IC50 [12]: < 50 µM

Compound: CC1=CC(=C(c2cc(C)c(O)c(C(=O)O)c2)c2cc(C)c(O)c(C(=O)O)c2)C=C(C(=O)O)C1=O
- IC50 [12]: 59.9 µM

Compound: O=C1C(Cl)=C(N2CCN(C3=C(Cl)C(=O)c4ccccc4C3=O)CC2)C(=O)c2ccccc21
- IC50 [12]: < 50 µM

Compound: CC1OC2CC(=O)OC2C2=C1C(=O)c1c(O)cccc1C2=O (configuration not stated)
- IC50 [12]: < 50 µM

Compound: C#CCC(N)C(=O)O (racemic)
- inhibition [13]: Active
- inhibition [14]: Active
- IC50 [15]: 371 µM

Compound: CC1=C/C(=C(\c2cc(C)c(O)c(C(=O)O)c2)c2c(Cl)ccc(S(=O)(=O)O)c2Cl)C=C(C(=O)O)C1=O
- IC50 [12]: 143 µM
